Reference: patent US11360102B2, “Biomarkers for the early detection of Parkinson's disease” (BOSTON MEDICAL CENTER CORPORATION, priority 2015, dated 2022)
Read-outs that look alike come from different tables or passages of the source.

Columns and labels:
[1] = test system: PLA2g6(L)-dependent Orai1-mediated SOCE; experiment: TG-induced store-operated Ca2+ entry (SOCE), Fura-2 imaging in human primary skin fibroblasts; type: cell-based; settings: Skin fibroblast, 10 μM of DES, hPSF, read-out: inhibition of TG-induced Ca^2+ influx
Experimental: Intracellular Ca^2+ studies were performed using standard Fura-2 imaging technique. Briefly, the cells were loaded with Fura-2/AM (5 μM) (Invitrogen) and cytosolic Ca^2+ (using F340/F380 ratio) was recorded simultaneously in individual cells. Representative traces in the figures show average (±SD) responses from up to 20 cells recorded simultaneously. Ca^2+ changes are shown by ΔRatio (ΔF340/F380), which is the difference between the basal and peak values of Ca^2+ responses. Summary bar graphs show the average (±SE) from 3 independent experiments for each condition; the total number of cells in each experimental group is identified on the graphs.
SOCE was measured in response to extracellular application of 2-2.5 mM Ca^2+ in the presence of TG. Concentration and time of acute TG treatment was titrated for each cell type to ensure >90% loss of Ca^2+ from TG-sensitive stores at the time of Ca^2+ addition. […] To inhibit PLA2g6 activity, (S)-BEL (S-bromoenol lactone, Cayman, USA) was applied (10-50 μM for 20 min in serum-free medium at 37° C.) to the cells after their loading with Fura-2/AM, and was washed away before the start of experiment.

PLA2g6 ex2^KO mice = experiment: L-DOPA challenge test, balance beam test; type: in vivo, mouse
Experimental: The balance beam test (ref 72, 73) was used to assess the ability of ageing ex2^KO and WT mice to maintain balance while walking along a narrow (2 cm) beam placed 20 cm above a soft mattress. Each mouse was placed on a beam for 2 minutes, and its movement was recorded by video camera. The total travel distance, the number of missteps (paw faults, or slips) during travel, and the number of falls off the beam were analyzed for each mouse, and data summarized for each group as mean±SE. The numbers of animals used for each group are identified on the graphs. L-DOPA challenge test (ref 3) was performed on three age groups (12, 16 and 20 months old) ex2^KO male mice with motor deficits. Control balance beam test was performed in the morning a day before L-3,4-dihydroxyphenylalanine (L-DOPA) challenge. In the morning of the following day, all mice received a single dose of L-DOPA (5, 10 or 25 mg/kg, Sigma) via peritoneal injection. Twenty minutes before L-DOPA administration, mice were given 6 mg/kg of benserazide (Sigma) to inhibit peripheral DOPA decarboxylase. The balance beam test was done 1 h after L-DOPA injection, as described above. Video-recorded data for each mouse were analyzed later, and summarized for each group as mean±SE. The numbers of animals used for each age group are identified next to the graph.

PLA2g6 = PLA2g6 activity, modified PLA2 assay kit, fibroblast homogenates; type: biochemical, human; settings: S-BEL 25 μM for 10 min; hPSF from control, idPD and fPD^R747W patients
Experimental: A modified PLA2 assay kit (Cayman for MEFs, and AbCam for hPSF) was used as previously described^21,26. Briefly, each sample of live hPSF or MEF cells was homogenized using a cold lysis buffer (10 mM Tris-HCl, pH 7.0, 300 mM sucrose, 0.5% Triton X-100). To identify specific activity of Ca^2+-independent PLA2g6, the assay buffers were modified to contain no Ca^2+. To assess catalytic activity of PLA2g6, the cells were homogenized and treated with 10 mM EGTA for 10 min, which is known to directly displace inhibitory calmodulin, and fully activate PLA2g6. For analysis of PLA2g6 activation by store depletion, live cells were pretreated with TG (5 μM for 10 min) before homogenization, and homogenates were not treated with 10 mM EGTA. The specificity of PLA2g6 activity in both cases was confirmed by its inhibition with S-BEL (25 μM for 10 min), a chiral-specific suicidal substrate^38 that discriminates PLA2g6 from all other phospholipases. […] The reaction was stopped and the generation of free thiols was visualized by addition of DTNB for 5 min: the absorbance was determined at 405 nm using a standard microplate reader. […]

MEF cells = experiment: LC3^mCherry/eGFP autophagic flow, live cell imaging in MEFs; type: cell-based, mouse; settings: WT MEFs; prolonged TG treatment, 10 nM for 24 hours
Experimental: Transfection of MEFs was performed using the Amaxa Nucleofector™ system (Lonza, Allendale, N.J., USA). Briefly, the cells were plated in a 6-well plate at a density of 200,000/well. After 24h the cells from each well were collected, centrifuged, re-suspended in 100 μl of electroporation solution (Mirus Bio, Madison, Wis., USA), mixed with 2 μg of the recombinant plasmid DNA and transfected using the T020 program. After electroporation, the cells were plated in 2 ml of warm DMEM containing 10% FBS and 1% penicillin/streptomycin, and grown for 24-48 hours, as specified. Transfection efficiency (verified by expression of GFP or LC3^mCherry/eGFP) was >70%.
Live cell imaging was done using Nikon Ti inverted fluorescence microscope equipped with a Perfect Focus system and environmental chamber (InVivo Scientific). Live cells transfected with LC3^mCherry/eGFP (alone, or in combination with PLA2g6, or its mutants) were imaged in glass-bottom dishes in culture medium at 37° C. and 5% CO2. Images of individual cells were taken using a 60×/1.4 Plan-Apochromat oil immersion objective (Nikon) and filter sets for GFP (ex: 465-496, em: 515-555) and Texas Red (ex: 540-580, em: 600-660). Images of representative cells were analyzed using ImageJ (Wayne Rasband, NIH) software. […]

## CC/C(=C(/CC)c1ccc(O)cc1)c1ccc(O)cc1 [DES, diethylstilbestrol]
[1]; control group
  inhibition at 10 µM: 80 ± 1%
[1]; idPD group
  inhibition at 10 µM: 82 ± 4%

## N[C@@H](Cc1ccc(O)c(O)c1)C(=O)O [L-DOPA, L-3,4-dihydroxyphenylalanine]
PLA2g6 ex2^KO mice; 5 mg/kg body weight L-DOPA, peritoneal injection, test 1 h after, 12-month old ex2^KO animals
  reduction in the number of missteps (balance beam performance): 60%
PLA2g6 ex2^KO mice; 5, 10 or 25 mg/kg, 12, 16 and 20 months old ex2^KO mice
  motor coordination of ex2^KO animals after L-DOPA: dramatically improved motor coordination

## O=C1O/C(=C/Br)CC[C@H]1c1cccc2ccccc12 [S-BEL, S-bromoenol lactone]
PLA2g6
  effect on PLA2g6 activity (catalytic and TG-induced): inhibition

## C/C=C(/C)C(=O)O[C@H]1C(C)=C2[C@H]([C@@H]1OC(=O)CCCCCCC)[C@@](C)(OC(C)=O)C[C@H](OC(=O)CCC)[C@@]1(O)[C@H]2OC(=O)[C@@]1(C)O [TG, thapsigargin]
MEF cells
  autophagic flow (LC3^mCherry/eGFP): Autophagic arrest
